The values below come from US20060106028A1, “Polycyclic aromatics and derivatives thereof and processes for their preparation” (priority 2004, published 2006).

≈ marks a conversion by molar mass, not a printed value.

Data set [1] has as its system HT-29 (colorectal carcinoma). The data set can be described thus: In vitro tumor growth inhibition (GI50, propidium iodide). The format is cell-based. The settings on record: Homo sapiens, 96 hrs.
Data set [2] deals with Sheep red blood cells. Nature of the data set: In vitro toxicity: hemolytic activity. The format is cell-based. The settings on record: 2 hrs at 37° C.; 2 to 64 μg/mL; prepared in DMSO or in 6% Tween/4.5% Glycocholate/5% EtOH formulation. Here is the method: In vitro toxicity: Sheep red blood cells were exposed to Compound 1 for 2 hrs at 37° C. at concentrations ranging from 2 to 64 μg/mL. Hemolytic activity was determined by monitoring the amount of hemoglobin released spectrophotometrically.

Data set [3] is described as follows: In vivo toxicity: single-dose maximum tolerated dose in CD1 mice. As to conditions: mouse, other: i.v. or i.p. (intravenous or intraperitoneal), single-dose via i.v. or i.p. routes, 1% SDS formulation. Here is the method: Toxicity and therapeutic efficacy of polycyclic aromatic compounds can be determined by standard pharmaceutical procedures in cell cultures or experimental animals. Therapeutic efficacy is determined in animal models as described above and in the examples herein. Toxicity studies are done to determine the lethal dose for 10% of tested animals (LD10). Animals are treated at the maximum tolerated dose (MTD): the highest dose not producing mortality or greater than 20% body weight loss. The effective dose (ED) is related to the MTD in a given tumor model to determine the therapeutic index of the compound.
In vivo toxicity: With CD1 mice, the maximum tolerated dose (MTD) for a single-dose via i.v. or i.p. routes in 1% SDS formulation was ≧5 mg/kg. The acute toxicity in CD-1 nu/nlu mice of Compound 1 was also determined in 6% Tween/4.5% Glycocholate/5% EtOH formulation.

Data set [4] deals with Staphylococcus aureus (ATCC™ 6538P). Nature of the data set: Antibacterial activity, MIC (NCCLS M7-A5). The format is cell-based. The settings on record: MH medium, 35° C., 16 to 20 hours.
The subject of data set [5] is Streptococcus pneumoniae PenR (LSPQ 3349). Nature of the data set: Antibacterial activity, MIC (NCCLS M7-A5). It counts as cell-based. As to conditions: MH medium +2% lysed horse blood.
The subject of data set [6] is Clostridium difficile (ATCC™ 9689). Nature of the data set: Antibacterial activity, MIC (NCCLS M11-A5, anaerobic). The settings on record: Clostridioides difficile; Brucella medium with hemin, vitamin K1 and 5% lysed horse blood; read-out: MIC. The format is cell-based. Here is the method: Antibacterial activity of Compounds 1 and 2 (Table 7) was measured by determining the minimal inhibitory concentration (MIC) necessary to obtain a complete inhibition of bacteria growth in seven indicator strains, namely Staphylococcus aureus (ATCC™ 6538P), Staphylococcus aureus MRS3 (ATCC™ 700699), Enterococcus faecalis VRE-1 (ATCC™ 29212), Enterococcus faecalis VRE-2 (ATCC™ 51299), Escherichia coli (ATCC™ 25922), Streptococcus pneumoniae (LSPQ 3412) and Streptococcus pneumoniae PenR (LSPQ 3349). Indicator strains preparation and MIC determination were performed according to the National Committee for Clinical Laboratory Standards (NCCLS) guideline M7-A5 Methods for Dilution Antimicrobial Susceptibility Tests for Bacteria That Grow Aerobically; Approved Standard-Fifth Edition. (NCCLS document M7-A5, ISBN 1-56238-394-9; NCCLS, 940 West Valley Road, Suite 1400, Wayne, Pa. 19087-1898 USA), the content of which is incorporated herein by reference. MIC determination against C. difficile was performed according to National Committee for Clinical Laboratory Standards (NCCLS) guideline M11-A5 Methods for Antimicrobial Susceptibility Testing of Anaerobic Bacteria.
Compounds 1 and 2 were prepared as 100× stock solutions in DMSO, with concentrations ranging from 3.2 mg/mL to 0.003 mg/mL (a two-fold dilution series over 11 points). An aliquot of each 100× stock solution was diluted 50-fold in test medium described below to give a set of eleven (11) 2× solutions. 50 μL of each of the eleven 2× solutions was aliquoted into the corresponding well of a 12-well row, with the final well reserved for medium alone control.
Vancomycin (Sigma™), used as positive control compound, was prepared as 2× stock solutions in Mueller-Hinton test medium ranging from 64 μg/mL to 0.06 μg/ml (a two-fold dilution series over 11 points). An aliquot of 50 μL corresponding to each concentration (at 2×) was then transferred to 96-well microplates to obtain a series of eleven two-fold dilutions.
An isolated colony of each of the indicator strains was used to inoculate tubes containing 2 mL of test medium. […]

The test system of data set [7] is Staphylococcus aureus (Smith strain, ATCC™ 13709). The data set can be described thus: In vivo antimicrobial efficacy in infected ICR mice. The settings on record: ip, ICR mice infected i.p., compound i.p. one hour post infection in 1% SDS, mortality recorded for 7 days, read-out: median effective dose (ED50). As to the method: In vivo efficacy studies were performed on ICR mice (supplied by Charles River Laboratories, Wilmington, Mass.) having a bodyweight of 20±2 g. Mice (38) were inoculated i.p. with an LD90-100 dose (1×10^6 CFU/mouse) of Staphylococcus aureus (Smith strain, ATCC™ 13709) suspended in 0.5 mL of BHI containing 5% mucin. Compound 1 at doses 0.1, 0.5, 1 and 5 mg/kg (formulated in 1% SDS for a total volume of 5 μL/g of weight) was administered i.p. one hour post infection (5 mice for each concentration). Another group of 5 mice was treated i.v. with a 10 mg/kg dose of Vancomycin. Finally, a group of 3 mice was administered vehicle only. Mortality was recorded for 7 days.

For the compound `CCC(C)c1cc2c(=O)c3ccc4c(OC)c5c(=O)c6c(O)ccc(O)c6c(=O)c5c(O)c4c3c(=O)c2c(=O)n1CC(=O)N1CC(C(=O)O)NC(=O)C1C` (stereo not shown) [Compound 1], halving of growth in data set [1] (GI50) required 8.85 µM. Further, the “Hemolytic activity (hemoglobin released)” value in data set [2] is listed as “did not display hemolytic activity up to 64 μg/mL”. The maximal tolerated dose (MTD) (as a rule, the highest dose tested that stayed within the study's limit of toxicity) in data set [3] was at least 5 mg/kg. For the same compound, the MIC (usually the smallest concentration in the dilution series that meets the test's criterion for growth inhibition) is 0.016 µg/mL (≈ 0.0217 µM) in data set [4], 4 to 16 µg/mL (≈ 5.42 to 21.7 µM) in data set [5] and 0.06 µg/mL (≈ 0.0813 µM) in data set [6]. Moreover, the ED50 (usually the dose that gives a 50% effect, or the effect in half of the subjects) in data set [7] is under 0.1 mg/kg.
